Values of other authors as cited in patent publication US20260335255A1, “PHARMACEUTICAL COMPOSITIONS” (priority 2022, published 2026).
Converted amounts (≈) assume the structure as drawn. Where a name gives a salt, the structure may show the parent alone.

What was measured:
[1] = system: healthy volunteers
[2] = system: patients with depression; settings: 0.5 mg/kg; 40 min infusion
[3] = system: patients; settings: for side effects: b8: single subanesthetic dose
[4] = system: patients; settings: anesthetic use; Pediatric Anesthesia 2005 15: 91-97

Row | Structure (SMILES) | solubility in water | thought disorder and withdrawal-retardation [1] | concentration needed for therapeutic efficacy in patients with depression [2] | effect on memory ([3]; background) | side effects ([3]; background) | depressive symptoms ([3]; single subanesthetic dose) | duration of action compared with racemic ketamine [4]
1 | CNC1(c2ccccc2Cl)CCCCC1=O (racemic) [Ketamine] | 200 mg/mL (≈ 841 mM) | significant levels of thought disorder and withdrawal-retardation | 185 ng/mL | direct effects on free recall and recognition memory | transient dissociation and psychotomimetic side effects and hemodynamic changes | reduces depressive symptoms | 
2 | CN[C@]1(c2ccccc2Cl)CCCCC1=O [S(+) ketamine] |  |  |  |  |  |  | significantly shorter acting than racemic ketamine
3 | CNC1(c2ccccc2Cl)CCCCC1=O (centres unmarked) [ketamine hydrochloride, Ketamine Hydrochloride] |  |  |  |  | blurred vision, double vision, dream-like feeling, dizziness, drowsiness, jerky muscle movements, loss of appetite, nausea, vomiting, sleep problems such as insomnia |  | 
